Measured values published in US8940325B2, “Use of synthetic polysulphated oligosaccharides as cleaning agents for a wound” (Laboratories Urgo, priority 2010, dated 2015).

Molecular target: T1, fibrin matrix (Homo sapiens, UniProt P02671+P02675+P02679)
T1 construct: 15 mg of human plasma fibrinogen (Sigma-Aldrich Catalog); purchased Sigma-Aldrich; host or cells: human plasma
T1 sequence (P02671 20-644 isoform P02671-2 limits assumed): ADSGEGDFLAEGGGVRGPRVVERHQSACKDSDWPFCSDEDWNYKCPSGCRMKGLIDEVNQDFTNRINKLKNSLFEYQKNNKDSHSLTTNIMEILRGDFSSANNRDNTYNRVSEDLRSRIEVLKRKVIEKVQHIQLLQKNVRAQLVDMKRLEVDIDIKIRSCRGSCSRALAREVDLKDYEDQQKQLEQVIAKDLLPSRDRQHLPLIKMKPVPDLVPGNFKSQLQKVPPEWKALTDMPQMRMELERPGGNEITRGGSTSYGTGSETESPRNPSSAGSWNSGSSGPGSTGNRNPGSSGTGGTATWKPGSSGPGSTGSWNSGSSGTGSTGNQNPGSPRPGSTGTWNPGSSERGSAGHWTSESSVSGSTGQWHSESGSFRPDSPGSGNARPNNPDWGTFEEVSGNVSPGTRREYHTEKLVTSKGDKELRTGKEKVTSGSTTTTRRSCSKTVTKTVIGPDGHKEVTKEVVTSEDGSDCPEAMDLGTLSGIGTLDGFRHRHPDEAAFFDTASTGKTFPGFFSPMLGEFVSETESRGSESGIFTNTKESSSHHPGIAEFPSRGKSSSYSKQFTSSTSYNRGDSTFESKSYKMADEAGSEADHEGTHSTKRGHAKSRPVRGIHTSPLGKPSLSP
T1 sequence (P02675 45-491 limits assumed): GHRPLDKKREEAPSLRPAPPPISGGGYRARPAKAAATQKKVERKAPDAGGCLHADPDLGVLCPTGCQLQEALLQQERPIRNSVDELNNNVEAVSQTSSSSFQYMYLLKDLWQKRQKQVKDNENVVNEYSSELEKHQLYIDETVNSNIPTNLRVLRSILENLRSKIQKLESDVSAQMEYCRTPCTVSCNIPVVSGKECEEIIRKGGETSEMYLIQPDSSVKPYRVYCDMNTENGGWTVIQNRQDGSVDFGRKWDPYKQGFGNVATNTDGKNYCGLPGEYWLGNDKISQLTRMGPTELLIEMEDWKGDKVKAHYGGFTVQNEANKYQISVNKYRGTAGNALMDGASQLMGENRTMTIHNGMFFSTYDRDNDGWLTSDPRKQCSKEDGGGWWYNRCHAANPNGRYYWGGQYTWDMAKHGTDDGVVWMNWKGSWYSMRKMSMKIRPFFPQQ
T1 sequence (P02679 27-437 isoform P02679-2 limits assumed): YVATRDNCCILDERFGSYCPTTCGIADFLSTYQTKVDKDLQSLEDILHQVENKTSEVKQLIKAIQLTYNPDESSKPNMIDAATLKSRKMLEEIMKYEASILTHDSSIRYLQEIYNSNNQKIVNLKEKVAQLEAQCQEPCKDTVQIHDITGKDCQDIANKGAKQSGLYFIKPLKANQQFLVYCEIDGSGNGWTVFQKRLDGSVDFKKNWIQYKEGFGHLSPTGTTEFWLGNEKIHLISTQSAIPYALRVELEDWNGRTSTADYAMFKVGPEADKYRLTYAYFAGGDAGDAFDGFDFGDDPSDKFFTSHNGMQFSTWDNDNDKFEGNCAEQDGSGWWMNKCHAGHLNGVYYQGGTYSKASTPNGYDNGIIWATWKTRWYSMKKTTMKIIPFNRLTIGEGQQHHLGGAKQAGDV
Test: Degradation of fibrin matrix prepared in vitro (visual observation and PDF determination)
Format: biochemical
Details: solution at 10 g/l, 48 hours
Description: The fibrin matrices were prepared according to Brown's protocol described in the work “Fibroblast migration in fibrin gel matrices” Am J. Pathol, 1993, 142: 273-283.
The following were dissolved at 37° C.: • 5 ml of an aqueous solution comprising 50 millimoles of Hepes (Sigma-Aldrich Catalog) • 15 mg of human plasma fibrinogen (Sigma-Aldrich Catalog) • 5 millimoles of CaCl2.
50 μl of thrombin, 100 NIH of human plasma (Sigma-Aldrich Catalog) were added to the solution thus prepared.
The reaction mixture was mixed, put in a 15-ml tube (or a Petri dish of 60 mm diameter) and then left to incubate at 37° C.
During the first 24 hours of incubation at 37° C., a fibrin matrix which has roughly the appearance of a gel was seen to appear.
In parallel, a control solution was prepared free from the test compound with phosphate-buffered saline (PBS).
The degradation of the fibrin matrix was monitored visually over the next 24 and 48 hours. […]
In order to quantify and verify that the observations made do indeed correspond to degradation of the fibrin matrix, the products of degradation of fibrin (PDFs) were determined 24 hours or 48 hours after adding the solutions of the test compound. […]
This solution was tested according to the protocol described above and the PDFs were measured 48 hours after adding the solution to the fibrin matrix. […]

SMILES: O=S(=O)([O-])OC[C@H]1O[C@@](COS(=O)(=O)[O-])(O[C@H]2O[C@H](COS(=O)(=O)[O-])[C@@H](OS(=O)(=O)[O-])[C@H](OS(=O)(=O)[O-])[C@H]2OS(=O)(=O)[O-])[C@@H](OS(=O)(=O)[O-])[C@@H]1OS(=O)(=O)[O-].[K+].[K+].[K+].[K+].[K+].[K+].[K+].[K+] [potassium salt of sucrose octasulfate]
- degradation of the fibrin matrix (level): partial degradation (if the value of the PDFs, expressed in μg/ml, is between 5 and 20, there is partial degradation of the fibrin matrix)
